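Test compounds were applied to cells in 96-well plates for 48 hours at 5 doses. At the GI50, growth is halved. Definition used: TGI = concentration required for complete inhibition of growth.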
Columns and labels:
Test in all cases: growth of human tumour cells (NCI), 48 h
UACC-257 melanoma = tested on: UACC-257 melanoma
CCRF-CEM leukemia = tested on: CCRF-CEM leukemia
HCC-2998 colon = tested on: HCC-2998 colon
HT29 colon = tested on: HT29 colon
MOLT-4 leukemia = tested on: MOLT-4 leukemia
SK-MEL-5 melanoma = tested on: SK-MEL-5 melanoma
BT-549 breast = tested on: BT-549 breast
UACC-62 melanoma = tested on: UACC-62 melanoma
NCI/ADR-RES ovarian = tested on: NCI/ADR-RES ovarian
PC-3 prostate = tested on: PC-3 prostate
LOX IMVI melanoma = tested on: LOX IMVI melanoma
SW-620 colon = tested on: SW-620 colon
MALME-3M melanoma = tested on: MALME-3M melanoma
IGROV1 ovarian = tested on: IGROV1 ovarian
A498 renal = tested on: A498 renal
RXF 393 renal = tested on: RXF 393 renal
SR leukemia = tested on: SR leukemia
NCI-H460 lung = tested on: NCI-H460 lung
OVCAR-4 ovarian = tested on: OVCAR-4 ovarian
HL-60(TB) leukemia = tested on: HL-60(TB) leukemia
MCF7 breast = tested on: MCF7 breast
SF-268 CNS = tested on: SF-268 CNS
RPMI-8226 leukemia = tested on: RPMI-8226 leukemia
CAKI-1 renal = tested on: CAKI-1 renal
T-47D breast = tested on: T-47D breast
SNB-19 CNS = tested on: SNB-19 CNS
NCI-H522 lung = tested on: NCI-H522 lung
SN12C renal = tested on: SN12C renal
HOP-92 NSCLC = tested on: HOP-92 NSCLC
OVCAR-3 ovarian = tested on: OVCAR-3 ovarian
OVCAR-5 ovarian = tested on: OVCAR-5 ovarian
SNB-75 CNS = tested on: SNB-75 CNS
HS 578T breast = tested on: HS 578T breast
U251 CNS = tested on: U251 CNS
HCT-15 colon = tested on: HCT-15 colon
MDA-MB-435 = tested on: MDA-MB-435
KM12 colon = tested on: KM12 colon
M14 melanoma = tested on: M14 melanoma

SMILES: COc1ccc(-c2nc(-c3nc4cc(Cl)c(Cl)cc4[nH]3)c3ccccn23)cc1
- GI50 (UACC-257 melanoma): 5.77 µM
- TGI (UACC-257 melanoma): > 100 µM
- GI50 (CCRF-CEM leukemia): > 100 µM
- TGI (CCRF-CEM leukemia): > 100 µM
- GI50 (HCC-2998 colon): > 100 µM
- TGI (HCC-2998 colon): > 100 µM
- GI50 (HT29 colon): 4.42 µM
- TGI (HT29 colon): > 100 µM
- GI50 (MOLT-4 leukemia): > 100 µM
- TGI (MOLT-4 leukemia): > 100 µM
- GI50 (SK-MEL-5 melanoma): 2.91 µM
- TGI (SK-MEL-5 melanoma): > 100 µM
- GI50 (BT-549 breast): 3.08 µM
- TGI (BT-549 breast): 9.48 µM
- GI50 (UACC-62 melanoma): 5.59 µM
- TGI (UACC-62 melanoma): > 100 µM
- GI50 (NCI/ADR-RES ovarian): 3.9 µM
- TGI (NCI/ADR-RES ovarian): > 100 µM
- GI50 (PC-3 prostate): 2.58 µM
- TGI (PC-3 prostate): > 100 µM
- GI50 (LOX IMVI melanoma): 3.6 µM
- TGI (LOX IMVI melanoma): > 100 µM
- GI50 (SW-620 colon): 8.37 µM
- TGI (SW-620 colon): > 100 µM
- GI50 (MALME-3M melanoma): 2.51 µM
- TGI (MALME-3M melanoma): 5.85 µM
- GI50 (IGROV1 ovarian): 3.73 µM
- TGI (IGROV1 ovarian): > 100 µM
- GI50 (A498 renal): 4.2 µM
- TGI (A498 renal): > 100 µM
- GI50 (RXF 393 renal): 1.76 µM
- TGI (RXF 393 renal): 4.26 µM
- GI50 (SR leukemia): 6.26 µM
- TGI (SR leukemia): > 100 µM
- GI50 (NCI-H460 lung): 3.01 µM
- TGI (NCI-H460 lung): > 100 µM
- GI50 (OVCAR-4 ovarian): 2 µM
- TGI (OVCAR-4 ovarian): 4.9 µM
- GI50 (HL-60(TB) leukemia): > 100 µM
- TGI (HL-60(TB) leukemia): > 100 µM
- GI50 (MCF7 breast): 7.2 µM
- TGI (MCF7 breast): > 100 µM
- GI50 (SF-268 CNS): 2.59 µM
- TGI (SF-268 CNS): 6.83 µM
- GI50 (RPMI-8226 leukemia): 3.74 µM
- TGI (RPMI-8226 leukemia): > 100 µM
- GI50 (CAKI-1 renal): 3.32 µM
- TGI (CAKI-1 renal): > 100 µM
- GI50 (T-47D breast): 4.06 µM
- TGI (T-47D breast): > 100 µM
- GI50 (SNB-19 CNS): 2.64 µM
- TGI (SNB-19 CNS): > 100 µM
- GI50 (NCI-H522 lung): 3.37 µM
- TGI (NCI-H522 lung): 82 µM
- GI50 (SN12C renal): > 100 µM
- TGI (SN12C renal): > 100 µM
- GI50 (HOP-92 NSCLC): 1.82 µM
- TGI (HOP-92 NSCLC): 5.1 µM
- GI50 (OVCAR-3 ovarian): 3.18 µM
- TGI (OVCAR-3 ovarian): > 100 µM
- GI50 (OVCAR-5 ovarian): > 100 µM
- TGI (OVCAR-5 ovarian): > 100 µM
- GI50 (SNB-75 CNS): 1.73 µM
- TGI (SNB-75 CNS): 3.23 µM
- GI50 (HS 578T breast): 2.68 µM
- TGI (HS 578T breast): 7.02 µM
- GI50 (U251 CNS): 3.05 µM
- TGI (U251 CNS): > 100 µM
- GI50 (HCT-15 colon): 30.1 µM
- TGI (HCT-15 colon): > 100 µM
- GI50 (MDA-MB-435): 5.77 µM
- TGI (MDA-MB-435): > 100 µM
- GI50 (KM12 colon): > 100 µM
- TGI (KM12 colon): > 100 µM
- GI50 (M14 melanoma): 4.92 µM
- TGI (M14 melanoma): > 100 µM

Source: PubChem BioAssay (NCI)
